Test results: patent publication EP0458363B1, “Fluorinated bis(hydroxymethyl) cyclobutyl purines and pyrimidines” (E.R. SQUIBB & SONS, INC., priority 1990, dated 1991)
Like-named read-outs stand apart in the source and are kept apart here.

Legend:
Type in all cases: cell-based
[1] = tested on: VZV (varicella zoster virus, strain ELLEN); assay: VZV antiviral plaque reduction assay in cell culture; conditions: WI-38 cell culture monolayers, at least 50% plaque reduction, 6-7 days incubation at 37°C, read-out: ID₅₀(µM) for the following viruses VZV
Description: (§1) Assays were performed in cell culture systems to determine the concentrations of compounds that are effective in preventing several kinds of viral infections.
(§2) HSV-1 (herpes simplex virus type 1, strain Schooler), HSV-2 (herpes simplex virus type 2, strain 186), VZV (varicella zoster virus, strain ELLEN), HCMV (human cytomegalovirus, strain AD 169), MuLV (murine leukemia virus, strain CAS).
(§3) HSV-1, HSV-2, HCMV, and VZV antiviral assays: Virus was adsorbed to WI-38 cell culture monolayers in 6 well culture plates (Costar, Cambridge, MA) for 1 hour prior to addition of maintenance medium containing duplicate dilutions of the test compound. Inhibition of plaque development was evaluated on fixed and stained monolayers after 4 days incubation at 37°C for HSV-1 and HSV-2 and after 6-7 days incubation at 37°C for HCMV and VZV. ID₅₀ values were determined from the drug concentration which conferred at least a 50% plaque reduction compared to virus controls.

[2] = tested on: MuLV (murine leukemia virus, strain CAS); assay: MuLV antiviral assay (XC syncytial plaque assay); conditions: SC1, SC-1 cells, XC cell overlay, syncytial plaques counted, read-out: ID₅₀(µM) for the following viruses MuLV
Description: as §1, §2
MuLV antiviral assay: Antiviral assays using MuLV were performed with some modification, as described by Rowe et al. and Shannon et al.. SC-1 cells were planted at approximately 2 x 10⁵ cell per well in 6 well plates. After overnight incubation at 37°C, the cell cultures were sensitised with DEAS-Dextran for one hour at 37°C, rinsed and inoculated with MuLV. Cultures were re-fed with growth medium containing different concentrations of the test compound. After three more days at 37°C, cultures were re-fed with fresh medium plus test compounds and incubated at 37°C for an additional 3 days. Cultures were then washed to remove medium, ultraviolet light irradiated, and planted with approximately 5 x 10⁵ XC cells per well in cell growth medium containing the appropriate concentration of the test compound. […] Finally the cultures were rinsed, stained and syncytial plaques were counted. […]

[3] = tested on: HCMV (human cytomegalovirus, strain AD 169); assay: HCMV antiviral plaque reduction assay in cell culture; conditions: WI-38 cell culture monolayers, at least 50% plaque reduction, 6-7 days incubation at 37°C, read-out: ID₅₀(µM) for the following viruses HCMV
Description: as §1, §2, §3

[4] = tested on: HSV-1 (herpes simplex virus type 1, strain Schooler); assay: HSV-1 antiviral plaque reduction assay in cell culture; conditions: WI-38 cell culture monolayers, at least 50% plaque reduction, 4 days incubation at 37°C, read-out: ID₅₀(µM) for the following viruses HSV-1
Description: as §1, §2, §3

[5] = tested on: HSV-2 (herpes simplex virus type 2, strain 186); assay: HSV-2 antiviral plaque reduction assay in cell culture; conditions: WI-38 cell culture monolayers, at least 50% plaque reduction, 4 days incubation at 37°C, read-out: ID₅₀(µM) for the following viruses HSV-2
Description: as §1, §2, §3

For `Nc1nc2c(ncn2[C@@H]2[C@@H](F)[C@H](CO)[C@H]2CO)c(=O)[nH]1` (racemic) [Compound I, (1α,2β,3α,4β)-2-Amino-9-[2-fluoro-3,4-bis(hydroxymethyl)cyclobutyl]-1,9-dihydro-6H-purin-6-one], the IC50 ([1]; Human alphaherpesvirus 3) was 1.8 to 3.5 µM, the IC50 [2] was 3.5 to 7 µM and the IC50 ([3]; Human betaherpesvirus 5) was 3.5 to 35 µM. The IC50 ([4]; Human alphaherpesvirus 1, 96 h) was 0.7 to 1.8 µM and the IC50 ([5]; Human alphaherpesvirus 2, 96 h) was 0.7 µM.

For `Nc1ncnc2c1ncn2[C@@H]1[C@@H](F)[C@H](CO)[C@H]1CO` (racemic) [Compound III, (1α,2β,3α,4β)-3-(6-Amino-9H-purin-9-yl)-4-fluoro-1,2-cyclobutanedimethanol], the IC50 ([1]; Human alphaherpesvirus 3) was 37 µM, the IC50 ([3]; Human betaherpesvirus 5) was 37 µM and the IC50 ([4]; Human alphaherpesvirus 1, 96 h) was 37 µM. For the same molecule, the IC50 ([5]; Human alphaherpesvirus 2, 96 h) was 7.5 to 19 µM.

In the case of `Nc1nc2c(ncn2[C@@H]2[C@@H](F)[C@H](CO)[C@H]2CO)c(=O)[nH]1` [Compound II, [1S-(1α,2β,3α,4β)]-2-Amino-9-[2-fluoro-3,4-bis(hydroxymethyl)cyclobutyl]-1,9-dihydro-6H-purin-6-one], the IC50 [1] is reported as ≤ 0.7 µM, the IC50 [3] is reported as 18 to 35 µM and the IC50 [4] is reported as 0.7 to 1.8 µM. For the same molecule, the IC50 [5] was 0.4 to 0.7 µM.

In the case of `O=c1[nH]c(=O)n([C@@H]2[C@@H](F)[C@H](CO)[C@H]2CO)cc1/C=C/Br` [Compound IV, [1S-(1α(E),2β,3α,4β)]-1-[2-fluoro-3,4-bis(hydroxymethyl)cyclobutyl]-5-(2-bromoethenyl)-2,4-(1H,3H)-pyrimidinedione], the IC50 ([1]; Human alphaherpesvirus 3) is reported as 28.6 to 286 µM, the IC50 ([3]; Human betaherpesvirus 5) is reported as > 286 µM and the IC50 ([4]; Human alphaherpesvirus 1, 96 h) is reported as > 286 µM. For the same molecule, the IC50 ([5]; Human alphaherpesvirus 2, 96 h) was > 286 µM.

In the case of `O=c1[nH]c(=O)n([C@@H]2[C@@H](F)[C@H](CO)[C@H]2CO)cc1/C=C/I` [Compound V, [1S-(1α(E),2β,3α,4β)]-1-[2-fluoro-3,4-bis(hydroxymethyl)cyclobutyl]-5-(2-iodoethenyl)-2,4-(1H,3H)-pyrimidinedione], the IC50 ([1]; Human alphaherpesvirus 3) is reported as 2.5 to 25.2 µM, the IC50 ([3]; Human betaherpesvirus 5) is reported as > 252 µM and the IC50 ([4]; Human alphaherpesvirus 1, 96 h) is reported as > 252 µM. For the same molecule, the IC50 ([5]; Human alphaherpesvirus 2, 96 h) was > 252 µM.
